Patent publication US5854388A, “Angiotensin IV peptides and receptor” (Washington State University Research Foundation, priority 1994, dated 1998)
Like-named read-outs stand apart in the source and are kept apart here.

Legend:
AT4 receptor [1] = target: T1, AT4 receptor (Bos taurus, UniProt F1N1Q8); assay: 125I-AIV binding and competition, bovine adrenal cortical membranes
T1 sequence (F1N1Q8 1-1022): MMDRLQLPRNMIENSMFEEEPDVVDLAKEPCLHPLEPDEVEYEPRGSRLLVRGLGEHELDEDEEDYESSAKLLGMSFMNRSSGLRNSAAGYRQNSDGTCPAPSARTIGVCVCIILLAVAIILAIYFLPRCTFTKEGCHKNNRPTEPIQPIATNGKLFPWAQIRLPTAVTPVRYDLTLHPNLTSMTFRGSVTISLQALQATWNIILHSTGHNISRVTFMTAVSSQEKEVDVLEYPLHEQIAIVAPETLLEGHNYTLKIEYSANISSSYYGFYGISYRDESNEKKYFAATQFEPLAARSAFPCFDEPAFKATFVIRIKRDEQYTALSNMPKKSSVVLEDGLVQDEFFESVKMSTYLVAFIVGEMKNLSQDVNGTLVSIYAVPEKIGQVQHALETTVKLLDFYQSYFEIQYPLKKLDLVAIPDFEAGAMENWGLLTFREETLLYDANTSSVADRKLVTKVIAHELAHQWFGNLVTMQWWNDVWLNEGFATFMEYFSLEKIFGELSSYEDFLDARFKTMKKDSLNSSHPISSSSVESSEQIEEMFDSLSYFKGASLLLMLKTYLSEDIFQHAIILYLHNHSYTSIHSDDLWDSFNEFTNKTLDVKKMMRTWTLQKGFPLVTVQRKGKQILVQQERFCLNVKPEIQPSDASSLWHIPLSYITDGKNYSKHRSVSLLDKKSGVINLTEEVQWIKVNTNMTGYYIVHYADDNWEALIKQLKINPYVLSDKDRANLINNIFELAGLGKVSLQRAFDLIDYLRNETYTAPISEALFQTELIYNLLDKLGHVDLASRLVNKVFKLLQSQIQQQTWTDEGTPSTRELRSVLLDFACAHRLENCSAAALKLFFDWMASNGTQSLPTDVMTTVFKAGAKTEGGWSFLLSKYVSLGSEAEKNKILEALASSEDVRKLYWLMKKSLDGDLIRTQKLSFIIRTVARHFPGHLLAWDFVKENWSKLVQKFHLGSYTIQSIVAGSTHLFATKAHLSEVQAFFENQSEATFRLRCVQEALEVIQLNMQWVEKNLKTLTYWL

AT4 receptor [2] = target: T1, AT4 receptor; assay: 125I-AIV binding and competition, coronary venular endothelial cell (CVEC) membranes; set-up: species or system bovine; conditions: for Ki: read-out: Ki
AT4 receptor [3] = target: T2, AT4 receptor (Cavia porcellus, UniProt H0VNM7); assay: 125I-AIV binding and competition, guinea pig hippocampus membranes; conditions: competition of 0.6 nM 125I-AIV
T2 sequence (H0VNM7 1-1025): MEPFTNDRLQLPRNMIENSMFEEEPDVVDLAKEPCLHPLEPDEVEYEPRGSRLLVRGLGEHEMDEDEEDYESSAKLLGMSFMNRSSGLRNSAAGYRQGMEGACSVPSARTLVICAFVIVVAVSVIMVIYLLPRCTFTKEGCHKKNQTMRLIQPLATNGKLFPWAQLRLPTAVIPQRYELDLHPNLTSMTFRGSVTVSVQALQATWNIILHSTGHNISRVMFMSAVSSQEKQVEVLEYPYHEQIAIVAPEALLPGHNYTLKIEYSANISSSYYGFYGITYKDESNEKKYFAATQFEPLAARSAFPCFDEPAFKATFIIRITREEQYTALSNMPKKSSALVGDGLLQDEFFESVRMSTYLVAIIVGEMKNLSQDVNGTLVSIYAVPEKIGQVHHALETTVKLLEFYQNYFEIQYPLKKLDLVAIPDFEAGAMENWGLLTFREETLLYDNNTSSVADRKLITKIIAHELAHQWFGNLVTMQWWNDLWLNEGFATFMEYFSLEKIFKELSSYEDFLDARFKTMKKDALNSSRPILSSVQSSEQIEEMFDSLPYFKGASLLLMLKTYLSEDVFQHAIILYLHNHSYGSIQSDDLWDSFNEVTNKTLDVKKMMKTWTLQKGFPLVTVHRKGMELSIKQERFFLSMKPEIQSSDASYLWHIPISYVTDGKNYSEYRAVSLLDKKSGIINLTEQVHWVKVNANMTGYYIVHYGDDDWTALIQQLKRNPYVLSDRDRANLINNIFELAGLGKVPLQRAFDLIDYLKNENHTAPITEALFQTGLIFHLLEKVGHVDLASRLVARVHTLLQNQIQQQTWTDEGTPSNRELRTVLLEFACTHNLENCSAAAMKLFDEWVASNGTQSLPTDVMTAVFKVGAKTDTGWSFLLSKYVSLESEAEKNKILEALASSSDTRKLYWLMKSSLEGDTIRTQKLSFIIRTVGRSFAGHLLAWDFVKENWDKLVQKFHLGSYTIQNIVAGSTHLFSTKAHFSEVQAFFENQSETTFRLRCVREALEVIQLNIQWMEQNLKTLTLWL

[4] = target: T3, AT1 receptor (AII receptor) (Bos taurus, UniProt P25104); format: binding, bovine; conditions: for Bmax: equilibrium binding
T3 construct: from tissue; host or cells: bovine adrenal cortex membranes
T3 sequence (P25104 1-359): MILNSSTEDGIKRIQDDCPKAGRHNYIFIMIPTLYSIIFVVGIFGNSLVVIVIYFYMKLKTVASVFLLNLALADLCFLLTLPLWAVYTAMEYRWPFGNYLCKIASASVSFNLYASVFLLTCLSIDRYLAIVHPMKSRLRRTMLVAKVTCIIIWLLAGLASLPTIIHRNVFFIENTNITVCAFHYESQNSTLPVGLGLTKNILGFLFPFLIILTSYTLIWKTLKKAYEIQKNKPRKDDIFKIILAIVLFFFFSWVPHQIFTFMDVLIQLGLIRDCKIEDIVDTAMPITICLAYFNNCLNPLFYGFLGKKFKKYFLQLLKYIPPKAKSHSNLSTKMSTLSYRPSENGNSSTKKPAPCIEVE

AT4 receptor [5] = target: T4, AT4 receptor (Oryctolagus cuniculus, UniProt G1SFU4); assay: 125I-AIV binding and competition, rabbit heart P2 membranes; conditions: competition of 0.5 nM 125I-AIV, 120 min, 37° C.
T4 sequence (G1SFU4 1-1025): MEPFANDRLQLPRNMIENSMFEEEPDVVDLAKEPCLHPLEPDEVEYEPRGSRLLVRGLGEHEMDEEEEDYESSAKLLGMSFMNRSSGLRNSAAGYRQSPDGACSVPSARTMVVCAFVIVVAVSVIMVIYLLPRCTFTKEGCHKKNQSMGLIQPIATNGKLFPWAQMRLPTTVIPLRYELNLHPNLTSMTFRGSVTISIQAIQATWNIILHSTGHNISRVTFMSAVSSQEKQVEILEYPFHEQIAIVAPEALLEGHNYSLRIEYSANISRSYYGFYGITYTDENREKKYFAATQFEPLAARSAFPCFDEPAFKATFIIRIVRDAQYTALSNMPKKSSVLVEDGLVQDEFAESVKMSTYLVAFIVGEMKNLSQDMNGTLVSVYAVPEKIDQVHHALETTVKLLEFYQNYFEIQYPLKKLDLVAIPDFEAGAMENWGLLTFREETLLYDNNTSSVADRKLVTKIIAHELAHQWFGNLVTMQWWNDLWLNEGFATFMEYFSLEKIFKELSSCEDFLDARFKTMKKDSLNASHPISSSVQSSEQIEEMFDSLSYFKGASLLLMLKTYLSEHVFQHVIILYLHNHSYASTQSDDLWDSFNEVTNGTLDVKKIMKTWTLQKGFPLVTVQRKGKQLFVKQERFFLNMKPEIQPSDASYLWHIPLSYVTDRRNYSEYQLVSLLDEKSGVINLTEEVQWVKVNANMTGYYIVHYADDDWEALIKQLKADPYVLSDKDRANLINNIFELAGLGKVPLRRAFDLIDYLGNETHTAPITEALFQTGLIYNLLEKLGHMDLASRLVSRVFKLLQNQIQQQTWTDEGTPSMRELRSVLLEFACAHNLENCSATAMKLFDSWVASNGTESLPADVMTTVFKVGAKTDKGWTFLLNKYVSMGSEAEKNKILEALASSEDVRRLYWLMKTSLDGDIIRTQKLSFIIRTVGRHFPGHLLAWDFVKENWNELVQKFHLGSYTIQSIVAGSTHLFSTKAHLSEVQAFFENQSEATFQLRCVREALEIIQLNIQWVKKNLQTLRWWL

AT4 receptor [6] = target: T1, AT4 receptor; assay: 125I-AIV binding and competition, solubilized bovine adrenal cortical receptor
[7] = Stability of angiotensin peptides in binding buffer (reverse phase HPLC); format: physicochemical; conditions: 4 h at 37° C.
Experimental: Binding studies were carried out in a buffer (below) containing an extensive cocktail of inhibitors that was designed to minimize metabolism of both the receptor and the test ligand, i.e., the buffer contained 5 mM EDTA, 0.2% BSA, […] Bestatin, 50 μM Plummer's inhibitor, and 100 μM PMSF.

[8] = in vivo; cited from earlier work
[9] = arterial and venous blood in man; cited from earlier work
rat kidney = assay: Renal cortical blood flow (laser doppler) and arterial pressure after infusion into the renal artery; format: in vivo
[10] = read-out: 125I-AIV Binding (Ki), competition

For CGP 42112A, the Ki (AT4 receptor [1]; [10]) was over 100 µM, the Ki (AT4 receptor [2]; unit inferred) was over 100 µM and the Ki (AT4 receptor [3]) was over 100 µM. The Ki ([4]; competition) was over 100 µM and the Ki (AT4 receptor [5]) was over 1 µM.
In the case of `CC[C@H](C)[C@H](NC(=O)[C@H](Cc1ccc(O)cc1)NC(=O)[C@@H](NC(=O)[C@@H](N)CCCNC(=N)N)C(C)C)C(=O)N[C@@H](Cc1c[nH]cn1)C(=O)N1CCC[C@H]1C(=O)N[C@@H](Cc1ccccc1)C(=O)O` [AIII, Arg1 Val2 Tyr3 Ile4 His5 Pro6 Phe7, reference compound], the “fold less active than AIV ligand” value (AT4 receptor [1]; density-gradient-purified heat-treated membranes) is reported as “about 52 fold”, the Ki (AT4 receptor [1]; density-gradient-purified heat-treated membranes, read-out: apparent affinity (Ki)) is reported as 0.0293 µM and the Ki (AT4 receptor [1]; [10]) is reported as over 0.0145 µM. The Ki (AT4 receptor [2]; competition of 0.5 nM 125I-AIV) was 0.0233 ± 0.0034 µM, the “fold less active than AIV ligand” value (AT4 receptor [6]) was “approximately 29 fold” and the “times less effective than AIV in competing binding” value (AT4 receptor [6]) was “approximately 100 times”. For the same compound, the “hydrolysis in binding buffer” value [7] was “less than 10%”, the “metabolized during transit through the kidney” value [8] was 89% and the half-lives [9] was 2.0 min.
For “Asp1 Arg2 Val3 Tyr4 Ile5 His6 Pro7 Phe8His9 Leu10 (DRVYIHPFHL) [AI]”, the “hydrolysis in binding buffer” value [7] is given as “less than 10%” and the “metabolized during transit through the kidney” value [8] is given as 72-76%.
In the case of SRVYIHPI [Sar1, Ile8 -AII], the “average change in AIV-induced blood flow with preinfusion” value (rat kidney; 1 nmol/min, 10 min preinfusion) is reported as under 3%, the “effect of preinfusion on blood flow response to another ligand” value (rat kidney; rat, in vivo) is reported as “completely blocked the AII effect while having no effect on AIV” and the Ki (AT4 receptor [1]; [10]) is reported as over 1 µM. The “increase in Ki (decrease in affinity) compared with AIV” value (AT4 receptor [2]) was 200 fold, the Ki (AT4 receptor [2]; competition of 0.5 nM 125I-AIV) was 0.261 ± 0.0891 µM and the Ki (AT4 receptor [3]) was over 1 µM. For the same compound, the “Hill Coeff.” value [4] was 1.00 ± .03, the Bmax ([4]; listed as 125I Sar1, Ile8 -Ang II) was 1.03 ± .26 pmol/mg prot and the Bmax ([4]; listed as 125I-Sar1,Ile8 -AII) was 1.03±0.26 pmol/mg prot. The Kd ([4]; read-out: Kd (calculated from kinetic constants)) was 0.000225 µM and the Ki (AT4 receptor [5]) was over 1 µM.
